Test results reported in ChEMBL document CHEMBL5104197, “Structure-Based Optimization of Coumestan Derivatives as Polyketide Synthase 13-Thioesterase(Pks13-TE) Inhibitors with Improved hERG Profiles for Mycobacterium tuberculosis Treatment” (J Med Chem, 2022).
Converted amounts (≈) assume the structure as drawn. The source made the active and inactive calls. No cut-off for these calls is given here.

Experiments:
[1] = system: Mycobacterium tuberculosis; assay: microbe, parasite or virus in culture; conditions: H37Rv, 168 h
[2] = system: Mycobacterium tuberculosis; type: functional, Vero; conditions: V4207, 168 h, time 7 day
[3] = Metabolic stability in human liver microsomes assessed as compound remaining measured after 60 mins by LC-MS/MS analysis; type: ADME, Microsome; conditions: read-out: Stability
[4] = Metabolic stability in human liver microsomes assessed as microsomal intrinsic clearance measured after 60 mins by LC-MS/MS analysis; type: ADME, Microsome; conditions: read-out: CLH
[5] = system: Mycobacterium tuberculosis; type: functional, organism-based; conditions: H37Rv, dose 100.0 mg/kg, route po, time 7.0 day
[6] = system: Mycobacterium tuberculosis; type: functional, organism-based; conditions: H37Rv, dose 100.0 mg/kg, route po, time 7.0 day; remark: listed apart in the source
[7] = system: Mycobacterium tuberculosis; assay: Binding affinity to wild type Mycobacterium tuberculosis Pks13-TE N1640 expressed in Escherichia coli BL21(DE3) pLysS assessed as change in melting temperature at 1:5 compound to protein ratio by nanoDSF thermal stability analysis
[8] = Metabolic stability in human liver microsomes assessed as half-life measured after 60 mins by LC-MS/MS analysis; type: ADME, Microsome
[9] = Selectivity index, ratio of CC50 for African green monkey Vero cells to MIC90 for Mycobacterium tuberculosis H37Rv; type: toxicity; conditions: read-out: Selectivity Index
[10] = system: Mycobacterium tuberculosis; assay: Binding affinity to wild type Mycobacterium tuberculosis Pks13-TE N1640 expressed in Escherichia coli BL21(DE3) pLysS assessed as change in melting temperature at 1:10 compound to protein ratio by nanoDSF thermal stability analysis
[11] = Cytotoxicity against African green monkey Vero cells; type: toxicity, cell-based, Chlorocebus sabaeus
[12] = Metabolic stability in human liver microsomes assessed as liver intrinsic clearance measured after 60 mins by LC-MS/MS analysis; type: ADME, Microsome; conditions: read-out: CLH

O=c1oc2cc(O)ccc2c2oc3ccc(O)c(CN4CCCC(F)C4)c3c12 (stereo unspecified)
MIC90 [1]: 0.25 µg/mL (≈ 0.652 µM)

CO[C@H]1/C=C/O[C@@]2(C)Oc3c(C)c(O)c4c(O)c(c(/C=N/N5CCN(C)CC5)c(O)c4c3C2=O)NC(=O)/C(C)=C\C=C\[C@H](C)[C@H](O)[C@@H](C)[C@@H](O)[C@@H](C)[C@H](OC(C)=O)[C@@H]1C [RIFAMPIN]
MIC90 [1]: 0.125 µg/mL (≈ 0.152 µM)

NNC(=O)c1ccncc1 [ISONIAZID]
MIC90 [1]: 0.04 µg/mL (≈ 0.292 µM)

O=c1oc2cc(O)ccc2c2oc3ccc(O)c(CNC4CCCCC4)c3c12
MIC90 [1]: 0.25 µg/mL (≈ 0.659 µM)

COc1ccc2c(c1)oc(=O)c1c2oc2ccc(O)c(CN3CCC(Br)CC3)c21
MIC90 [1]: > 64 µg/mL

O=c1oc2cc(O)ccc2c2oc3ccc(O)c(CN4CCC5(CC4)CC5)c3c12
MIC90 [1]: 0.25 µg/mL (≈ 0.639 µM)

CC(C)CCN1COc2ccc3oc4c5ccc(O)cc5oc(=O)c4c3c2C1
MIC90 [1]: 0.0625 µg/mL (≈ 0.165 µM)

O=c1oc2cc(O)ccc2c2oc3ccc4c(c3c12)CN(C1CCCC1)CO4
MIC90 [2]: 0.0078 µg/mL (≈ 0.0207 µM) | remaining at 1 h [3]: 80.9% | CLint scaled [4]: < 9.6 mL/min/kg | Activity [5]: Active | Activity [6]: Active | ΔTm [7]: 8.1 °C | half-life [8]: > 2.42 h | selectivity ratio [9]: 32 | ΔTm [10]: 8.4 °C | IC50 [11]: 0.125 µg/mL (≈ 0.331 µM) | MIC90 [1]: 0.0039 µg/mL (≈ 0.0103 µM)

O=c1oc2cc(O)ccc2c2oc3ccc(O)c(CN4CCC(F)(F)C4)c3c12
MIC90 [1]: > 64 µg/mL

CC[C@@H](CO)NCCN[C@@H](CC)CO [ETHAMBUTOL]
MIC90 [1]: 1 µg/mL (≈ 4.89 µM)

O=c1oc2cc(O)ccc2c2oc3ccc(O)c(CNCc4ccccc4)c3c12
MIC90 [1]: 1 µg/mL (≈ 2.58 µM)

O=C(c1c(O)ccc2oc3c4ccc(O)cc4oc(=O)c3c12)N1CCCCC1
MIC90 [1]: > 64 µg/mL

O=c1oc2cc(O)ccc2c2oc3ccc4c(c3c12)CN(CC1CC1)CO4
ΔTm [7]: 5.4 °C | ΔTm [10]: 5.3 °C | MIC90 [1]: 0.0625 µg/mL (≈ 0.172 µM)

COc1ccc2c(c1)oc(=O)c1c2oc2ccc(O)c(CN3CCC(F)(F)C3)c21
MIC90 [1]: > 64 µg/mL

O=c1oc2cc(O)ccc2c2oc3ccc(O)c(CN4CC[C@H](F)C4)c3c12
MIC90 [1]: 0.125 µg/mL (≈ 0.338 µM)

O=c1oc2cc(O)ccc2c2oc3ccc(O)c(CN4CCCCC4)c3c12
CLint scaled [12]: 10.4 mL/min/kg | CLint scaled [4]: 11.5 mL/min/kg | ΔTm [7]: 7 °C | half-life [8]: 2 h | ΔTm [10]: 7.2 °C | MIC90 [1]: 0.0039 µg/mL (≈ 0.0107 µM)

O=c1oc2cc(O)ccc2c2oc3ccc(O)c(CN4CC[C@@H](F)C4)c3c12
MIC90 [1]: 0.5 µg/mL (≈ 1.35 µM)

O=C1CCCCN1Cc1c(O)ccc2oc3c4ccc(O)cc4oc(=O)c3c12
MIC90 [1]: > 64 µg/mL

O=c1oc2cc(O)ccc2c2oc3ccc(O)c(CN4CCC(F)CC4)c3c12
CLint scaled [12]: 21 mL/min/kg | MIC90 [2]: 0.125 µg/mL (≈ 0.326 µM) | remaining at 1 h [3]: 47.4% | CLint scaled [4]: 23.5 mL/min/kg | Activity [5]: Active | Activity [6]: Active | ΔTm [7]: 8.8 °C | half-life [8]: 0.992 h | ΔTm [10]: 7.6 °C | IC50 [11]: 4 µg/mL (≈ 10.4 µM) | MIC90 [1]: 0.0625 µg/mL (≈ 0.163 µM)

CC(C)CCNCc1c(O)ccc2oc3c4ccc(O)cc4oc(=O)c3c12
MIC90 [1]: 0.125 µg/mL (≈ 0.34 µM)

O=c1oc2cc(O)ccc2c2oc3ccc(O)c(CN4CCC(F)(F)CC4)c3c12
MIC90 [1]: 1 µg/mL (≈ 2.49 µM)

COc1ccc2c(c1)oc(=O)c1c2oc2ccc(O)c(CN3CCC(F)(F)CC3)c21
MIC90 [1]: > 64 µg/mL

CC1(C)CCN(Cc2c(O)ccc3oc4c5ccc(O)cc5oc(=O)c4c23)CC1
MIC90 [1]: 0.25 µg/mL (≈ 0.635 µM)

COC(=O)c1c(NC(=O)c2c(F)c(F)c(F)c(F)c2F)sc2c1CCCCC2
MIC [1]: 1 µM (≈ 0.419 µg/mL)

O=c1oc2cc(O)ccc2c2oc3ccc(O)c(CNC4CCCC4)c3c12
MIC90 [1]: 0.0039 µg/mL (≈ 0.0107 µM)

O=c1oc2cc(O)ccc2c2oc3ccc4c(c3c12)CN(C1CC1)CO4
MIC90 [1]: 0.125 µg/mL (≈ 0.358 µM)

COc1ccc2c(c1)oc(=O)c1c2oc2ccc(O)c(CN3CCC(C)(C)CC3)c21
MIC90 [1]: 8 µg/mL (≈ 19.6 µM)

O=c1oc2cc(O)ccc2c2oc3ccc(O)c(CN4CCCC(F)(F)C4)c3c12
MIC90 [1]: > 64 µg/mL

O=c1oc2cc(O)ccc2c2oc3ccc(O)c(CN4CCC(Br)CC4)c3c12
MIC90 [1]: 0.125 µg/mL (≈ 0.281 µM)
